What is called Kp is tissue or fluid exposure divided by exposure in the circulation.

In data set [1] the test system is kainic acid induced seizures. Description: Kainic acid seizure model in the rat. It counts as in vivo. To be noted: for anticonvulsant effects in the kainic acid seizure test: rat; for magnitude of the effects in the kainic acid seizure test compared with reference: middle-high doses, reference Diazepam 16 mg/kg p.o. Here is the method:
Kainic acid is an analog of the excitatory neurotransmitter, glutamate and acts as an agonist of kainic acid receptors. After systemic injection, kainic acid induces prolonged excitatory responses with many of the features of human temporal lobe epilepsy.
Rats, placed in individual Plexiglas cages (33×21×18 cm), are injected with kainic acid (20 mg/kg i.p.). The occurrences of the following symptoms are noted over a 120-minute period 30 minutes after kainic acid injection: forelimb clonus, rearings and rearings with falling, clonic convulsions, tonic convulsions and death. The presence of each symptom and the latencies to the first appearance of the symptoms are measured. The number of forelimb clonus is counted.
12 rats are studied per group. The test is performed partially blind.
The test substances will be evaluated at multiple doses, administered p.o. 240 minutes before the test, and compared with the corresponding vehicle control group (Group 2, administered with 10% HP-b-CD in distilled water, p.o. 240 minutes before the test).
Example 6 was evaluated at 0.3, 1, 3 and 10 mg/kg, and Example 8 was evaluated at 1, 3 and 10 mg/kg, administered p.o. 4 hours before the test, and compared with a vehicle control group (administered with 10% HP-b-CD, p.o. 4 hours before the test).
Diazepam (16 mg/kg) used as reference substance, was administered p.o. 60 minutes before the test (0.5% HP-b-CD) and was compared with vehicle controls.
Quantitative data (latencies) with the test substance was analyzed by comparing treated groups with vehicle control using Kruskal-Wallis test followed by Mann-Whitney U test. Quantitative data with the reference substance will be analysed using Mann-Whitney U test.
Quantal data (frequencies) were analyzed by comparing treated groups with vehicle control using Fisher's Exact Probability tests.

Data set [2] is described as follows: Rat Kp, brain disposition after oral gavage. Type of data set: in vivo. Conditions: for Total plasma concentration / Total blood concentration / Total brain concentration: 5 mg/kg oral gavage; for Total plasma concentration / Kp at 4 h / Kp uu at 4 h: 4 h; for Total plasma concentration: calculated from total blood concentration using blood to plasma ratio; for Total blood concentration / Total brain concentration: 4 h post dosing, mean n = 3; for Kp at 4 h / Kp uu at 4 h: male, Sprague-Dawley, po, 5 mg/kg p.o.; for Kp at 4 h: total brain concentration:total plasma concentration ratio; for Kp uu at 4 h: unbound brain concentration:unbound plasma concentration ratio. As to the method: Brain disposition was evaluated in male Sprague-Dawley rats (n=3, standard body weight). Briefly, test compound was formulated as a simple suspension, in 0.5% HPMC in water, then administered by oral gavage (5 mg/kg, 5 mL/kg). Four hours post dosing, rats were sacrificed, and terminal blood and brain samples were taken. Blood was obtained via cardiac puncture (0.1 mL) and was added into 0.4 mL CH3CN for precipitation immediately. The samples were stored at −75+/−15° C. prior to analysis. Brain tissue samples were collected after animals were fully exsanguinated, and the tissues were washed with cold saline quickly. After sectioning, brain sections were immediately frozen in liquid nitrogen and stored at −75+/−15° C. prior to analysis. Blood and brain samples were analyzed by LC/MS/MS using an optimized analytical method. Concentrations of test compound in blood and brain were quantified against matrix matched calibration standards. The total blood, plasma, and brain concentration data are presented in Table 2 alongside the calculated brain Kp (total brain concentration:total plasma concentration ratio), the calculated brain kp,uu (unbound brain concentration:unbound plasma concentration ratio), the free fractions in rat plasma and brain, and the in vitro rat blood to plasma distribution profile. The total plasma concentration data were calculated from the total blood concentration data using rat blood to plasma ratio which was measured in vitro (1 μM test compound). For kp,uu determination, the free fraction in rat plasma and brain homogenate were measured in vitro by standard equilibrium dialysis (1 μM test compound and 6 h equilibration against buffer pH 7.4; for rat plasma analysis, 100 mM stock solution of diisopropyl fluorophosphate was added to the pre-warmed rat plasma prior to adding test article).

The structures appear in SMILES notation.

With `O=C(Nc1cccnn1)[C@H]1CC12CCN(C(=O)OC(C(F)(F)F)C(F)(F)F)CC2` [Example 6, 1,1,1,3,3,3-hexafluoropropan-2-yl (S)-1-(pyridazin-3-ylcarbamoyl)-6-azaspiro[2.5]octane-6-carboxylate], the “anticonvulsant effects in the kainic acid seizure test” value in data set [1] (dose-range 0.3-10 mg/kg p.o. 4 hours before the test) was “clear anticonvulsant effects”. The “magnitude of the effects in the kainic acid seizure test compared with reference” value in data set [1] is “close to those observed with the reference substance, Diazepam”. In data set [2], the Total plasma concentration is 0.576 µM, the Total blood concentration stood at 0.415 µM, the Total brain concentration stood at 1.78 µM and the Kp at 4 h is 3.09. Further, in data set [2], the Kp uu at 4 h amounted to 2.25.
With `O=C(NC1CCOCC1)[C@H]1CC12CCN(C(=O)OC(C(F)(F)F)C(F)(F)F)CC2` [Example 8, 1,1,1,3,3,3-hexafluoropropan-2-yl (S)-1-[(oxan-4-yl)carbamoyl]-6-azaspiro[2.5]octane-6-carboxylate], the “anticonvulsant effects in the kainic acid seizure test” value in data set [1] (dose-range 1-10 mg/kg p.o. 4 hours before the test) is given as “clear anticonvulsant effects”. Besides, the “magnitude of the effects in the kainic acid seizure test compared with reference” value in data set [1] is reported as “close to those observed with the reference substance, Diazepam”. In data set [2], the Total plasma concentration was 0.124 µM, the Total blood concentration came out at 0.119 µM, the Total brain concentration amounted to 0.255 µM and the Kp at 4 h came out at 2.06. In addition, in data set [2], the Kp uu at 4 h was determined as 0.801.
